Legend:
[1] = system: V79-G3 cells; assay type: cell-based, Chinese hamster
[2] = system: HEK293 cells; assay type: cell-based, human

Nc1ncnc2c1ncn2[C@@H]1O[C@H](COP(=O)(O)OP(=O)(O)O)[C@@H](O)[C@H]1O [ADP, adenosine diphosphate]
increase in respiration over the basal level [1]: ~20%

C=C(C)[C@H]1Cc2c(ccc3c2O[C@@H]2COc4cc(OC)c(OC)cc4[C@@H]2C3=O)O1 [rotenone]
inhibition of ADP-stimulated respiration [2]: dose-dependently | rotenone sensitivity of glutamate+malate-supported respiration [1]: sensitive to rotenone

From patent publication US9915647B2 (priority 2011, dated 2018)
